# Patent US20240238228A1, “COMPOSITIONS AND METHODS FOR TREATING ALLERGIES AND INFLAMMATORY CONDITIONS” (UNIVERSITY OF PITTSBURGH-OF THE COMMONWEALTH SYSTEM OF …, priority 2021, published 2024)
# No end group written: not given here.
# How the values were obtained:
# [1] = target: calpain released into cell-free supernatants by IgE-activated murine BMMCs (murine) (UniProt O35350); assay: cell-based or functional assay
# calpain = assay: Calpain inhibition in cell-free BMMC supernatants pulsed with inhibitor; assay type: biochemical, murine; conditions: Ac-calpastatin 20 μg/mL, 30 min; mean±SEM from n=3
# Protocol: (§1) Calpain activity was detected from cell-free supernatants using the Calpain-Glo Protease Assay (Promega). Supernatants were incubated with substrate for 10 min prior to luminescent detection. In some experiments, glyburide or vehicle (0.1% DMSO) were added to cells 10 min prior to Ag. ELISA kits from eBioscience (IL-13), BioLegend, (TNF and IL-10) or RayBiotech (NKA) and used in accord with the manufacturer's recommendations.
# (§2) To detect early IL-10 release, 4×10^6 cells were incubated in serum free RPMI for a minimum of three hours prior to IgE loading and activation with DNP-HSA (100 ng/mL). Supernatants were collected and IL-10 was detected in accord with manufacturer's recommendations using 1.0% BSA to block and a top standard of 250 pg/mL. The lower limit of detection was 7.8 pg/mL. To evaluate the role of relationship between calpain and IL-10, cell-free supernatants were collected 10 min after activation and incubated with Ac-calpastatin (Ac-Cal; 20 μg/mL, Cayman) or vehicle control. Ac-Cal containing supernatants were further incubated for 30 min prior to IL-10 quantification by ELISA. To directly test IL-10 proteolysis, MCs were activated for 45 min, cell free supernatants were collected and pulsed with recombinant IL-10 (Biolegend, 250 pg/mL).
# IL-10 = IL-10 degradation assays on BMMC supernatants; assay type: cell-based, murine; conditions: supernatants collected 10 min after activation, pulsed with Ac-calpastatin 30 min
# Protocol: as §2, with “Ac-Cal containing supernatants were further incubated for 30 min prior to IL-10 quantification by ELISA.” left out
# MCs = conditions: previous studies; cited from earlier work
# peanut allergy = assay: Peanut allergy desensitization by microneedle arrays; assay type: in vivo, mouse; conditions: mouse, in vivo
# IL-33 = conditions: mouse, in vivo
# NKA = NKA in skin homogenates by ELISA; assay type: in vivo, mouse; conditions: IL-10 1.0 ng/ear; without PCA induction
# Protocol: as §1
# Mouse ears were measured with a micrometer then sensitized with IgE in filter-sterilized PBS (Sigma, clone SPE-7, 20 ng/50 μl/ear) or vehicle control. Twenty-four hours later mice were treated with NKA (10 μg/ear, intradermal) or vehicle (PBS) 3 h prior to Ag (DNP-HSA 100 μg, in 200 μl, intravenous in saline) administration. Data are presented as change in ear thickness between baseline and the indicated time. Where indicated, mice were treated with recombinant murine IL-10 (Peprotech, 1.0 ng/ear) at the time of IgE injection or treated with glyburide (2.5 mg/kg, i.p), 3 h prior to Ag administration.
# Cytokine expression in the skin was investigated 24 h after PCA induction. […] Protein concentrations were quantified using the BCA Protein Assay (Pierce). […] Densitometry values subtracting the median background from individual spot areas were calculated with ImageStudioLite v5.2.5. […]
# recombinant murine IL-10 = assay: Degradation of recombinant IL-10 by purified calpain (Western blot); assay type: biochemical; conditions: rIL-10 incubated with increasing concentrations of purified calpain, 60 min
# Protocol: The IL-10 degrading capacity of calpain, recombinant murine IL-10 (Peprotech) was incubated with human calpain I (Athens Research and Technology) for 60 min at 37° C., then denatured with Laemelli Buffer (BioRad) and resolved on 10% Tris-Glycine SDS-PAGE gels (BioRad). Proteins were transferred to […] PVDF membranes (BioRad), blocked for 1 h with Odyssey Blocking Buffer (LI-COR) and probed overnight with goat anti-mouse IL-10 antibody (RnD Systems). Ant-IL10 was detected with donkey anti-goat 800CW (LI-COR) and visualized on a LI-COR Imaging System. Densitometry was calculated using ImageStudioLite v5.2.5 (Licor). Values are presented as (rIL-10+calpain)/rIL-10 alone)*100.
molecule,measurement,setting,value
Ac-calpastatin (Cayman) (from UniProt P20810 184-210) (peptide),calpain activity,[1],20.1%
Ac-calpastatin: a calpain inhibitor (Cayman) (Ac-DPMSSTYIEELGKREVTIPPKYRELLA; not fully specified (C-terminus)) [reference compound],inhibition of calpain activity,calpain,20.1±1.72%
same,IL-10 levels in supernatants from IgE-activated BMMCs,IL-10,partially restored
NKA(4-10): a naturally truncated form of NKA [reference compound],effect on MCs (β-hexosaminidase or histamine release as readouts),MCs,no effect
botulinum toxin A,allergy to peanut allergen after CPE challenge,peanut allergy,desensitizes
same,IL-33 expression in skin,IL-33,reduces IL-33 expression
recombinant IL-10: recombinant murine IL-10 (Peprotech) (protein) SRGQYSREDNNCTHFPVGQSHMLLELRTAFSQVKTFFQTKDQLDNILLTDSLMQDFKGYLGCQALSEMIQFYLVEVMPQAEKHGPEIKEHLNSLGEKLKTLRMRLRRCHRFLPCENKSKAVEQVKSDFNKLQDQGVYKAMNEFDIFINCIEAYMMIKMKS,steady state NKA in skin homogenates,NKA,significantly increased
"calpain: purified human calpain I (Athens Research and Technology), IL-10 degrading cysteine protease (protein) SEEIITPVYCTGVSAQVQKQRARELGLGRHENAIKYLGQDYEQLRVRCLQSGTLFRDEAFPPVPQSLGYKDLGPNSSKTYGIKWKRPTELLSNPQFIVDGATRTDICQGALGDCWLLAAIASLTLNDTLLHRVVPHGQSFQNGYAGIFHFQLWQFGEWVDVVVDDLLPIKDGKLVFVHSAEGNEFWSALLEKAYAKVNGSYEALSGGSTSEGFEDFTGGVTEWYELRKAPSDLYQIILKALERGSLLGCSIDISSVLDMEAITFKKLVKGHAYSVTGAKQVNYRGQVVSLIRMRNPWGEVEWTGAWSDSSSEWNNVDPYERDQLRVKMEDGEFWMSFRDFMREFTRLEICNLTPDALKSRTIRKWNTTLYEGTWRRGSTAGGCRNYPATFWVNPQFKIRLDETDDPDDYGDRESGCSFVLALMQKHRRRERRFGRDMETIGFAVYEVPPELVGQPAVHLKRDFFLANASRARSEQFINLREVSTRFRLPPGEYVVVPSTFEPNKEGDFVLRFFSEKSAGTVELDDQIQANLPDEQVLSEEEIDENFKALFRQLAGEDMEISVKELRTILNRIISKHKDLRTKGFSLESCRSMVNLMDRDGNGKLGLVEFNILWNRIRNYLSIFRKFDLDKSGSMSAYEMRMAIESAGFKLNKKLYELIITRYSEPDLAVDFDNFVCCLVRLETMFRFFKTLDTDLDGVVTFDLFKWLQLTMFA",amount of IL-10 detected by Western blot,recombinant murine IL-10,inversely proportional to calpain concentration
